Assay results taken from the supplement of paper PMC10307832.

How the values were obtained:
Experiment in all cases: relative viability (nuclei count vs DMSO), 5 days (fraction); higher = more cells survive
Midostaurin + Luminespib = compound: CO[C@@H]1[C@H](N(C)C(=O)c2ccccc2)C[C@H]2O[C@]1(C)n1c3ccccc3c3c4c(c5c6ccccc6n2c5c31)C(=O)NC4 [Midostaurin] + CCNC(=O)c1noc(-c2cc(C(C)C)c(O)cc2O)c1-c1ccc(CN2CCOCC2)cc1 [Luminespib] (partner 0.01 µM)
In short: (§1)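 Lung cancer cell lines in 1536-well plates were dosed by pin tool the day after seeding, either with one drug alone or with a fixed anchor-drug dose plus five library-drug doses (not always all listed) in √10 steps. After 5 days, cells were fixed and their nuclei stained in one step (final 0.05% Triton X-100, 1% formaldehyde, 1 ug/ml Hoechst), then counted on 4× images. Relative viability is the nuclei count in treated wells divided by that in vehicle wells. Values are medians of duplicate plates.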

[1] = compound: COc1cc(-c2nn([C@H]3CC[C@H](N4CCN(C(C)=O)CC4)CC3)c3ncnc(N)c23)ccc1NC(=O)c1cc2ccccc2n1C + Cc1nc(NC(=O)N2CCC[C@H]2C(N)=O)sc1-c1ccnc(C(C)(C)C(F)(F)F)c1 [Alpelisib] (partner 2 µM)
In short: as §1

[2] = compound: COc1cc(-c2nn([C@H]3CC[C@H](N4CCN(C(C)=O)CC4)CC3)c3ncnc(N)c23)ccc1NC(=O)c1cc2ccccc2n1C + O=C(c1cc(Cc2n[nH]c(=O)c3ccccc23)ccc1F)N1CCN(C(=O)C2CC2)CC1 [Olaparib] (partner 8 µM)
In short: as §1

[3] = compound: COc1cc(-c2nn([C@H]3CC[C@H](N4CCN(C(C)=O)CC4)CC3)c3ncnc(N)c23)ccc1NC(=O)c1cc2ccccc2n1C + Cc1cc(Nc2cc(N3CCN(C)CC3)nc(Sc3ccc(NC(=O)C4CC4)cc3)n2)n[nH]1 [Tozasertib] (partner 0.1 µM)
In short: as §1

[4] = compound: COc1cc(-c2nn([C@H]3CC[C@H](N4CCN(C(C)=O)CC4)CC3)c3ncnc(N)c23)ccc1NC(=O)c1cc2ccccc2n1C + COc1cccc2cc(-c3nc([C@H]4CC[C@H](C(=O)O)CC4)n4ncnc(N)c34)[nH]c12 [OSI-027] (partner 0.5 µM)
In short: as §1

Cell Line	relative viability (Midostaurin + Luminespib; first compound 0.01 µM)	relative viability (Midostaurin + Luminespib; first compound 0.03162 µM)	relative viability (Midostaurin + Luminespib; first compound 0.1 µM)	relative viability (Midostaurin + Luminespib; first compound 0.3162 µM)	relative viability ([1]; first compound 0.0128 µM)	relative viability ([1]; first compound 0.04048 µM)	relative viability ([1]; first compound 0.128 µM)	relative viability ([1]; first compound 1.28 µM)	relative viability ([2]; first compound 0.0128 µM)	relative viability ([2]; first compound 0.04048 µM)	relative viability ([2]; first compound 0.128 µM)	relative viability ([2]; first compound 1.28 µM)	relative viability ([3]; first compound 0.0128 µM)	relative viability ([3]; first compound 0.04048 µM)	relative viability ([3]; first compound 0.128 µM)	relative viability ([3]; first compound 1.28 µM)	relative viability ([4]; first compound 0.0128 µM)	relative viability ([4]; first compound 0.04048 µM)	relative viability ([4]; first compound 0.128 µM)	relative viability ([4]; first compound 1.28 µM)
201T	1.02	0.98	0.997	1.06	0.996	1.09	0.908	0.591	0.899	0.896	0.767	0.623	1	0.949	0.854	0.523	0.646	0.765	0.746	0.339
A549					0.739	0.774	0.862	0.57	0.302	0.47	0.465	0.271								
A-427	0.869	0.905	0.753	0.953	1.15	0.959	1.01	0.908	0.768	0.737	0.782	0.754	0.221		0.222	0.185	0.497		0.456	0.45
ABC-1		0.571	0.641	0.591	0.972	1.08	0.78	1	0.6	0.835	0.665	0.806	0.151	0.205	0.176	0.154	0.499	0.434	0.384	0.377
BEN	0.541	1.23	0.396	0.457	0.972	1.15	0.865	0.642	1.1	1.05	1.02	0.848	0.56	0.569	0.518	0.432	0.27	0.296	0.311	0.291
CAL-12T	0.174	0.172	0.212	0.174	1.32	1.25	1.34	0.998	0.682	0.763	0.811	0.697	0.29	0.275	0.221	0.178	0.638	0.497	0.7	0.461
COR-L23	0.605	0.644	0.541	0.625	0.749	0.97	0.682	0.682	0.347	0.41	0.367	0.395	0.246	0.217	0.147	0.133	0.753	0.752	0.71	0.672
COR-L 105	0.597	0.686	0.777	0.621	1.13	1.09	1.08	0.531	0.798	0.676	0.594	0.478	0.335	0.309	0.355	0.269	0.59	0.799	0.636	0.343
Calu-6					0.927	0.936	0.943	0.829	0.581	0.611	0.516	0.424								
ChaGo-K-1	0.619	0.627	0.525	0.626					0.488	0.452	0.409	0.328	0.215	0.218	0.211	0.195	0.607	0.532	0.519	0.464
EBC-1					0.823	0.785	0.723	0.732	0.679	0.746	0.546	0.654								
EKVX	0.883	0.868	0.823	0.749	0.827	1.09	0.75	0.509	1.01	0.972	0.774	0.409	0.398	0.379	0.332	0.19	0.765	0.853	0.618	0.54
EMC-BAC-2	1.11	1.05	0.898	1.16	0.749	0.743	0.696	0.514	0.52	0.645	0.473	0.5	0.276	0.377	0.331	0.273	0.347	0.531	0.385	0.352
EPLC-272H	0.323		0.333	0.48	0.976	1.09	0.923	0.765	0.666	1.01	0.729	0.589	0.38		0.235	0.19	0.27		0.293	0.264
H3255	1.14	0.848	0.779	0.848	0.886	0.615	0.607	0.433	0.616	0.579	0.558	0.491	0.829	0.591	0.571	0.581	0.564	0.476	0.573	0.552
HARA	0.917	0.712	0.681	0.76	0.855	0.886	0.735	0.447	0.873	0.923	0.78	0.445	0.11	0.0748	0.101	0.0842	0.489	0.312	0.482	0.248
HCC-15	0.305	0.38	0.308	0.165	0.963	0.886	0.864	0.662	0.745	0.77	0.719	0.651	0.332	0.473	0.331	0.247	0.832	0.463	0.616	0.586
